# According to US6352958B1, “Cycloimido-substituted benzofused heterocyclic herbicides” (FMC Corporation, priority 1997, dated 2002):
# Key:
# Type in all cases: in vivo
# [1] = test system: field corn (Zea mays var. Pioneer 3732); experiment: Postemergence herbicidal activity, corn; conditions: rate of application 0.3 Kg/Ha, rated after 12-17 days
# [2] = test system: green foxtail (Setaria viridis); experiment: Preemergence herbicidal activity, green foxtail; conditions: Rate of Application 0.3 Kg/Ha, examined after 12-17 days
# [3] = test system: green foxtail (Setaria viridis); experiment: Postemergence herbicidal activity, green foxtail; conditions: rate of application 0.3 Kg/Ha, rated after 12-17 days
# [4] = test system: common cocklebur (Xanthium strumarium L.); experiment: Postemergence herbicidal activity, cocklebur; conditions: rate of application 0.3 Kg/Ha, rated after 12-17 days
# [5] = test system: soybean (Glycine max var. Winchester); experiment: Postemergence herbicidal activity, soybean; conditions: rate of application 0.3 Kg/Ha, rated after 12-17 days
# [6] = test system: field corn (Zea mays var. Pioneer 3732); experiment: Preemergence herbicidal activity, corn; conditions: Rate of Application 0.3 Kg/Ha, examined after 12-17 days
# [7] = test system: morningglory (Ipomea lacunosa or Ipomea hederacea); experiment: Preemergence herbicidal activity, morningglory; conditions: Rate of Application 0.3 Kg/Ha, examined after 12-17 days
# [8] = test system: morningglory (Ipomea lacunosa or Ipomea hederacea); experiment: Postemergence herbicidal activity, morningglory; conditions: rate of application 0.3 Kg/Ha, rated after 12-17 days
# [9] = test system: Johnsongrass (Sorghum halepense); experiment: Preemergence herbicidal activity, johnsongrass; conditions: Rate of Application 0.3 Kg/Ha, examined after 12-17 days
# [10] = test system: velvetleaf (Abutilon theophrasti); experiment: Postemergence herbicidal activity, velvetleaf; conditions: rate of application 0.3 Kg/Ha, rated after 12-17 days
# [11] = test system: common chickweed (Stellaria media); experiment: Postemergence herbicidal activity, chickweed; conditions: rate of application 0.3 Kg/Ha, rated after 12-17 days
# [12] = test system: velvetleaf (Abutilon theophrasti); experiment: Preemergence herbicidal activity, velvetleaf; conditions: Rate of Application 0.3 Kg/Ha, examined after 12-17 days
# [13] = test system: wheat (Triticum aestivum var. Lew); experiment: Postemergence herbicidal activity, wheat; conditions: rate of application 0.3 Kg/Ha, rated after 12-17 days
# [14] = test system: soybean (Glycine max var. Winchester); experiment: Preemergence herbicidal activity, soybean; conditions: Rate of Application 0.3 Kg/Ha, examined after 12-17 days
# [15] = test system: Johnsongrass (Sorghum halepense); experiment: Postemergence herbicidal activity, johnsongrass; conditions: rate of application 0.3 Kg/Ha, rated after 12-17 days
# [16] = test system: wheat (Triticum aestivum var. Lew); experiment: Preemergence herbicidal activity, wheat; conditions: Rate of Application 0.3 Kg/Ha, examined after 12-17 days
# [17] = test system: blackgrass (Aloepecurus myosuroides); experiment: Preemergence herbicidal activity, blackgrass; conditions: Rate of Application 0.3 Kg/Ha, examined after 12-17 days
# Method: The benzofused heterocyclic compounds of this invention were tested for pre- and postemergence herbicidal activity using a variety of crops and weeds. The test plants included soybean (Glycine max var. Winchester), field corn (Zea mays var. Pioneer 3732), wheat (Triticum aestivum var. Lew), morningglory (Ipomea lacunosa or Ipomea hederacea), velvetleaf (Abutilon theophrasti), green foxtail (Setaria viridis), Johnsongrass (Sorghum halepense), blackgrass (Aloepecurus myosuroides), common chickweed (Stellaria media), and common cocklebur (Xanthium strumarium L.).
# For preemergence testing, two disposable fiber flats (8 cm×15 cm×25 cm) for each rate of application of each candidate herbicide were filled to an approximate depth of 6.5 cm with steam-sterilized sandy loam soil. The soil was leveled and impressed with a template to provide five evenly spaced furrows 13 cm long and 0.5 cm deep in each flat. Seeds of soybean, wheat, corn, green foxtail, and johnsongrass were planted in the furrows of the first flat, and seeds of velvetleaf, morningglory, common chickweed, cocklebur, and blackgrass were planted in the furrows of the second flat. The five-row template was employed to firmly press the seeds into place. A topping soil of equal portions of sand and sandy loam soil was placed uniformly on top of each flat to a depth of approximately 0.5 cm. Flats for postemergence testing were prepared in the same manner except that they were planted 9-14 days prior to the preemergence flats and were placed in a greenhouse and watered, thus allowing the seeds to germinate and the foliage to develop.
# In both pre- and postemergence tests, a stock solution of the candidate herbicide was prepared by dissolving 0.27 g of the compound in 20 mL of water/acetone (50/50) containing 0.5% v/v sorbitan monolaurate. For an application rate of 3000 g/ha of herbicide a 10 mL portion of the stock solution was diluted with water/acetone (50/50) to 45 mL.
# The preemergence flats were initially subjected to a light water spray. The four flats were placed two by two along a conveyor belt (i.e., the two preemergence followed by the two postemergence flats). The conveyor belt fed under a spray nozzle mounted about ten inches above the post-emergent foliage. The preemergent flats were elevated on the belt so that the soil surface was at the same level below the spray nozzle as the foliage canopy of the postemergent plants. The spray of herbicidal solution was commenced and once stabilized, the flats were passed under the spray at a speed to receive a coverage equivalent of 100 L/ha. At this coverage the application rates are those shown in the above table for the individual herbicidal solutions. The preemergence flats were watered immediately thereafter, placed in the greenhouse and watered regularly at the soil surface. The postemergence flats were immediately placed in the green-house and not watered until 24 hours after treatment with the test solution. Thereafter they were regularly watered at ground level. After 12-17 days the plants were examined and the phytotoxicity data were recorded.
# Phytotoxicity data were taken as percent control. Percent control was determined by a method similar to the 0 to 100 rating system disclosed in “Research Methods in Weed Science,” 2nd ed., B. Truelove, Ed.; Southern Weed Science Society; Auburn University, Auburn, Ala., 1977.
# [18] = test system: common chickweed (Stellaria media); experiment: Preemergence herbicidal activity, chickweed; conditions: Rate of Application 0.3 Kg/Ha, examined after 12-17 days
# [19] = test system: common cocklebur (Xanthium strumarium L.); experiment: Preemergence herbicidal activity, cocklebur; conditions: Rate of Application 0.3 Kg/Ha, examined after 12-17 days
structure (smiles),measurement,setting,value
CC(=O)Nc1nc2c(-n3c(=O)cc(C(F)(F)F)n(C)c3=O)c(F)cc(Br)c2o1 [Compound 43],Postemergence herbicidal activity (% control) CRN,[1],70%
same,PREEMERGENCE HERBICIDAL ACTIVITY (% CONTROL) SETVI,[2],70%
same,Postemergence herbicidal activity (% control) SETVI,[3],50%
same,Postemergence herbicidal activity (% control) XANPE,[4],50%
same,Postemergence herbicidal activity (% control) SOY,[5],80%
same,PREEMERGENCE HERBICIDAL ACTIVITY (% CONTROL) CRN,[6],80%
same,PREEMERGENCE HERBICIDAL ACTIVITY (% CONTROL) IPOSS,[7],100%
same,Postemergence herbicidal activity (% control) IPOSS,[8],100%
same,PREEMERGENCE HERBICIDAL ACTIVITY (% CONTROL) SORHA,[9],80%
same,Postemergence herbicidal activity (% control) ABUTH,[10],100%
same,Postemergence herbicidal activity (% control) STEME,[11],70%
same,PREEMERGENCE HERBICIDAL ACTIVITY (% CONTROL) ABUTH,[12],100%
same,Postemergence herbicidal activity (% control) WHT,[13],30%
same,PREEMERGENCE HERBICIDAL ACTIVITY (% CONTROL) SOY,[14],50%
same,Postemergence herbicidal activity (% control) SORHA,[15],50%
same,PREEMERGENCE HERBICIDAL ACTIVITY (% CONTROL) WHT,[16],40%
same,PREEMERGENCE HERBICIDAL ACTIVITY (% CONTROL) ALOMY,[17],60%
same,PREEMERGENCE HERBICIDAL ACTIVITY (% CONTROL) STEME,[18],10%
Cn1c(C(F)(F)F)cc(=O)n(-c2ccc(Cl)c3cc(C=O)oc23)c1=O [Compound 265],Postemergence herbicidal activity (% control) CRN,[1],60%
same,PREEMERGENCE HERBICIDAL ACTIVITY (% CONTROL) SETVI,[2],80%
same,Postemergence herbicidal activity (% control) SETVI,[3],40%
same,PREEMERGENCE HERBICIDAL ACTIVITY (% CONTROL) XANPE,[19],70%
same,Postemergence herbicidal activity (% control) XANPE,[4],20%
same,Postemergence herbicidal activity (% control) SOY,[5],70%
same,PREEMERGENCE HERBICIDAL ACTIVITY (% CONTROL) CRN,[6],80%
same,PREEMERGENCE HERBICIDAL ACTIVITY (% CONTROL) IPOSS,[7],100%
same,Postemergence herbicidal activity (% control) IPOSS,[8],100%
same,PREEMERGENCE HERBICIDAL ACTIVITY (% CONTROL) SORHA,[9],60%
same,Postemergence herbicidal activity (% control) ABUTH,[10],100%
same,Postemergence herbicidal activity (% control) STEME,[11],30%
same,PREEMERGENCE HERBICIDAL ACTIVITY (% CONTROL) ABUTH,[12],90%
same,Postemergence herbicidal activity (% control) WHT,[13],40%
same,PREEMERGENCE HERBICIDAL ACTIVITY (% CONTROL) SOY,[14],70%
same,Postemergence herbicidal activity (% control) SORHA,[15],20%
same,PREEMERGENCE HERBICIDAL ACTIVITY (% CONTROL) WHT,[16],40%
same,PREEMERGENCE HERBICIDAL ACTIVITY (% CONTROL) STEME,[18],20%
Cn1c(C(F)(F)F)cc(=O)n(-c2ccc(Cl)c3cc(C(=O)O)oc23)c1=O [Compound 266],Postemergence herbicidal activity (% control) CRN,[1],60%
same,PREEMERGENCE HERBICIDAL ACTIVITY (% CONTROL) SETVI,[2],30%
same,Postemergence herbicidal activity (% control) SETVI,[3],40%
same,PREEMERGENCE HERBICIDAL ACTIVITY (% CONTROL) XANPE,[19],0%
same,Postemergence herbicidal activity (% control) XANPE,[4],10%
same,Postemergence herbicidal activity (% control) SOY,[5],60%
same,PREEMERGENCE HERBICIDAL ACTIVITY (% CONTROL) CRN,[6],60%
same,PREEMERGENCE HERBICIDAL ACTIVITY (% CONTROL) IPOSS,[7],70%
same,Postemergence herbicidal activity (% control) IPOSS,[8],60%
same,PREEMERGENCE HERBICIDAL ACTIVITY (% CONTROL) SORHA,[9],30%
same,Postemergence herbicidal activity (% control) ABUTH,[10],50%
same,Postemergence herbicidal activity (% control) STEME,[11],10%
same,PREEMERGENCE HERBICIDAL ACTIVITY (% CONTROL) ABUTH,[12],40%
same,Postemergence herbicidal activity (% control) WHT,[13],40%
same,PREEMERGENCE HERBICIDAL ACTIVITY (% CONTROL) SOY,[14],50%
same,Postemergence herbicidal activity (% control) SORHA,[15],40%
same,PREEMERGENCE HERBICIDAL ACTIVITY (% CONTROL) WHT,[16],30%
same,PREEMERGENCE HERBICIDAL ACTIVITY (% CONTROL) STEME,[18],0%
Cn1c(C(F)(F)F)cc(=O)n(-c2ccc(Cl)c3cc(C(N)=O)oc23)c1=O [Compound 269],Postemergence herbicidal activity (% control) CRN,[1],70%
same,PREEMERGENCE HERBICIDAL ACTIVITY (% CONTROL) SETVI,[2],100%
same,Postemergence herbicidal activity (% control) SETVI,[3],70%
same,PREEMERGENCE HERBICIDAL ACTIVITY (% CONTROL) XANPE,[19],100%
same,Postemergence herbicidal activity (% control) SOY,[5],90%
same,PREEMERGENCE HERBICIDAL ACTIVITY (% CONTROL) CRN,[6],80%
same,PREEMERGENCE HERBICIDAL ACTIVITY (% CONTROL) IPOSS,[7],100%
same,Postemergence herbicidal activity (% control) IPOSS,[8],80%
same,PREEMERGENCE HERBICIDAL ACTIVITY (% CONTROL) SORHA,[9],75%
same,Postemergence herbicidal activity (% control) ABUTH,[10],100%
same,Postemergence herbicidal activity (% control) STEME,[11],80%
same,PREEMERGENCE HERBICIDAL ACTIVITY (% CONTROL) ABUTH,[12],100%
same,Postemergence herbicidal activity (% control) WHT,[13],40%
same,PREEMERGENCE HERBICIDAL ACTIVITY (% CONTROL) SOY,[14],60%
same,Postemergence herbicidal activity (% control) SORHA,[15],60%
same,PREEMERGENCE HERBICIDAL ACTIVITY (% CONTROL) WHT,[16],30%
same,PREEMERGENCE HERBICIDAL ACTIVITY (% CONTROL) ALOMY,[17],70%
same,PREEMERGENCE HERBICIDAL ACTIVITY (% CONTROL) STEME,[18],100%
CN(C)C(=O)c1cc2c(Cl)ccc(-n3c(=O)cc(C(F)(F)F)n(C)c3=O)c2o1 [Compound 271],Postemergence herbicidal activity (% control) CRN,[1],60%
same,PREEMERGENCE HERBICIDAL ACTIVITY (% CONTROL) SETVI,[2],100%
same,Postemergence herbicidal activity (% control) SETVI,[3],70%
same,PREEMERGENCE HERBICIDAL ACTIVITY (% CONTROL) XANPE,[19],100%
same,Postemergence herbicidal activity (% control) SOY,[5],80%
same,PREEMERGENCE HERBICIDAL ACTIVITY (% CONTROL) CRN,[6],90%
same,PREEMERGENCE HERBICIDAL ACTIVITY (% CONTROL) IPOSS,[7],100%
same,Postemergence herbicidal activity (% control) IPOSS,[8],100%
same,PREEMERGENCE HERBICIDAL ACTIVITY (% CONTROL) SORHA,[9],90%
same,Postemergence herbicidal activity (% control) ABUTH,[10],100%
same,Postemergence herbicidal activity (% control) STEME,[11],100%
same,PREEMERGENCE HERBICIDAL ACTIVITY (% CONTROL) ABUTH,[12],100%
same,Postemergence herbicidal activity (% control) WHT,[13],40%
same,PREEMERGENCE HERBICIDAL ACTIVITY (% CONTROL) SOY,[14],80%
same,Postemergence herbicidal activity (% control) SORHA,[15],50%
same,PREEMERGENCE HERBICIDAL ACTIVITY (% CONTROL) WHT,[16],70%
same,PREEMERGENCE HERBICIDAL ACTIVITY (% CONTROL) ALOMY,[17],80%
same,PREEMERGENCE HERBICIDAL ACTIVITY (% CONTROL) STEME,[18],100%
